In patent US7469185B2, “Primary rat hepatocyte toxicity modeling” (Ocimum Biosolutions, Inc., priority 2002, dated 2008):

Legend:
primary rat hepatocytes = assay: Microarray gene expression analysis (Affymetrix rat array) of toxin-exposed hepatocytes, with linear discriminant score; assay type: cell-based; details: 24 hrs
Description: Identification of toxicity markers was performed by microarray analysis and by the AlamarBlue® assay, a classical measure of cytotoxicity. The AlamarBlue® assay was performed in triplicate.
The source of the primary rat hepatocytes was Sprague Dawley Outbred CDs Rats (CRL:CD®[SD] IGS BR, Charles River Laboratories). […] Primary rat hepatocytes were received the day after the cells were removed from the animals. After arrival, the cells, the cells were incubated overnight (˜15 hrs) before the toxin was added to the cultures. […] Toxin or vehicle was administered to hepatocyte cultures as follows. For each treatment, i.e., vehicle alone, vehicle+toxin at low dose, or vehicle+toxin at high dose, cells were harvested after 3, 6 and 24-hour incubations with the toxin solution or with the vehicle.
More than 10^7 cells are typically prepared for each sample. RNA was collected at 3, 6 and 24 hours following addition of the toxin according to the following procedure.
Each flask contained ˜10-20 million cells. The contents of each flask were mixed vigorously for one minute with a vortex mixer and then aspirated up and down 5 times with a pipette. The contents of each flask (˜12 ml each) was collected into a 50 ml conical polypropylene tissue culture tube (Falcon), snap frozen in liquid nitrogen and stored at ≦−86° C.
Microarray sample preparation was conducted with minor modifications, following the protocols set forth in the Affymetrix GeneChip® Expression Analysis Manual. Frozen cells were ground to a powder using a Spex Certiprep 6800 Freezer Mill. Total RNA was extracted with Trizol (GibcoBRL) utilizing the manufacturer's protocol. […] Double stranded cDNA was generated from mRNA using the SuperScript Choice system (GibcoBRL). First strand cDNA synthesis was primed with a T7-(dT24) oligonucleotide. The cDNA was phenol-chloroform extracted and ethanol precipitated to a final concentration of […]. From 2 μg of cDNA, cRNA was synthesized using Ambion's T7 MegaScript in vitro Transcription Kit.
To biotin label the cRNA, nucleotides Bio-11-CTP and Bio-16-UTP (Enzo Diagnostics) were added to the reaction. Following a 37° C. incubation for six hours, impurities were removed from the labeled cRNA following the RNeasy Mini kit protocol (Qiagen). cRNA was fragmented (fragmentation buffer consisting of 200 mM Tris-acetate, pH 8.1, 500 mM KOAc, 150 mM MgOAc) for thirty-five minutes at 94° C. Following the Affymetrix protocol, 55 μg of fragmented cRNA was hybridized on the Affymetrix rat array set for twenty-four hours at 60 rpm in a 45° C. hybridization oven. The chips were washed and stained with Streptavidin Phycoerythrin (SAPE) (Molecular Probes) in Affymetrix fluidics stations. To amplify staining, SAPE solution was added twice with an anti-streptavidin biotinylated antibody (Vector Laboratories) staining step in between. Hybridization to the probe arrays was detected by fluorometric scanning (Hewlett Packard Gene Array Scanner). Data was analyzed using Affymetrix GeneChip® version 3.0 and Expression Data Mining Tool (EDMT) software (version 1.0), S-Plus, and the GeneExpress® software system.
Each gene is identified by its Gene Logic identification number and can be cross-referenced to a gene name and representative SEQ ID NO. in Table 1.

dogs = details: dog, in vivo; cited from earlier work

With `Cl.Nc1nc2c(Cc3ccsc3)c[nH]c2c(=O)[nH]1.O` [CI-1000, 4H-pyrrolo:3,2-d:pyrimidin-4-one, 2-amino-3,5-dihydro-7-(3-thienylmethyl)-monohydrochloride monohydrate] the “Mean Tox” value (primary rat hepatocytes; GLGC ID NO. 108) was 773.3800, the “Mean Tox” value (primary rat hepatocytes; GLGC ID NO. 573) was 8.6367 and the “Mean Tox” value (primary rat hepatocytes; GLGC ID NO. 574) was 4432.0900. The “Mean Tox” value (primary rat hepatocytes; GLGC ID NO. 798) was 128.0433, the “Mean Tox” value (primary rat hepatocytes; GLGC ID NO. 1348) was 71.9967 and the “Mean Tox” value (primary rat hepatocytes; GLGC ID NO. 1378) was 98.1567. For the same compound, the “Mean Tox” value (primary rat hepatocytes; GLGC ID NO. 1570) was 1078.9433, the “Mean Tox” value (primary rat hepatocytes; GLGC ID NO. 1571) was 1228.2500 and the “Mean Tox” value (primary rat hepatocytes; GLGC ID NO. 1728) was 390.6900. The “Mean Tox” value (primary rat hepatocytes; GLGC ID NO. 1798) was 347.1167, the “Mean Tox” value (primary rat hepatocytes; GLGC ID NO. 2250) was 3776.5600 and the “Mean Tox” value (primary rat hepatocytes; GLGC ID NO. 2267) was 415.0967. The “Mean Tox” value (primary rat hepatocytes; GLGC ID NO. 2382) was 33.0133, the “Mean Tox” value (primary rat hepatocytes; GLGC ID NO. 2909) was 422.4233 and the “Mean Tox” value (primary rat hepatocytes; GLGC ID NO. 2911) was 39.1667. The “Mean Tox” value (primary rat hepatocytes; GLGC ID NO. 2933) was 16.1500, the “Mean Tox” value (primary rat hepatocytes; GLGC ID NO. 3246) was 236.8700 and the “Mean Tox” value (primary rat hepatocytes; GLGC ID NO. 3501) was 61.2333. The “Mean Tox” value (primary rat hepatocytes; GLGC ID NO. 3631) was 235.6533, the “Mean Tox” value (primary rat hepatocytes; GLGC ID NO. 4636) was 424.3433 and the “Mean Tox” value (primary rat hepatocytes; GLGC ID NO. 4650) was 398.0633. The “Mean Tox” value (primary rat hepatocytes; GLGC ID NO. 5044) was 161.4467, the “Mean Tox” value (primary rat hepatocytes; GLGC ID NO. 5258) was 68.1000 and the “Mean Tox” value (primary rat hepatocytes; GLGC ID NO. 5496) was 49.0667. The “Mean Tox” value (primary rat hepatocytes; GLGC ID NO. 5615) was 127.1533, the “Mean Tox” value (primary rat hepatocytes; GLGC ID NO. 5899) was 33.5000 and the “Mean Tox” value (primary rat hepatocytes; GLGC ID NO. 6033) was 72.8967. For the same compound, the “Mean Tox” value (primary rat hepatocytes; GLGC ID NO. 6224) was 150.6700, the “Mean Tox” value (primary rat hepatocytes; GLGC ID NO. 6291) was 87.3167 and the “Mean Tox” value (primary rat hepatocytes; GLGC ID NO. 6343) was 51.9167. For the same compound, the “Mean Tox” value (primary rat hepatocytes; GLGC ID NO. 6717) was 59.7300, the “Mean Tox” value (primary rat hepatocytes; GLGC ID NO. 6996) was 165.6633 and the “Mean Tox” value (primary rat hepatocytes; GLGC ID NO. 7926) was 49.1133. The “Mean Tox” value (primary rat hepatocytes; GLGC ID NO. 8395) was 10.1200, the “Mean Tox” value (primary rat hepatocytes; GLGC ID NO. 9309) was 142.4767 and the “Mean Tox” value (primary rat hepatocytes; GLGC ID NO. 9500) was 66.0900. The “Mean Tox” value (primary rat hepatocytes; GLGC ID NO. 9845) was 126.4867, the “Mean Tox” value (primary rat hepatocytes; GLGC ID NO. 10138) was 43.7667 and the “Mean Tox” value (primary rat hepatocytes; GLGC ID NO. 10544) was 702.1267. For the same compound, the “Mean Tox” value (primary rat hepatocytes; GLGC ID NO. 10920) was −1.0367, the “Mean Tox” value (primary rat hepatocytes; GLGC ID NO. 10986) was 12.0067 and the “Mean Tox” value (primary rat hepatocytes; GLGC ID NO. 11610) was 570.7167. The “Mean Tox” value (primary rat hepatocytes; GLGC ID NO. 12563) was 634.3933, the “Mean Tox” value (primary rat hepatocytes; GLGC ID NO. 12580) was 37.5533 and the “Mean Tox” value (primary rat hepatocytes; GLGC ID NO. 13169) was 173.3367. For the same compound, the “Mean Tox” value (primary rat hepatocytes; GLGC ID NO. 13283) was 44.9933, the “Mean Tox” value (primary rat hepatocytes; GLGC ID NO. 13346) was 474.6867 and the “Mean Tox” value (primary rat hepatocytes; GLGC ID NO. 13563) was 194.5233. For the same compound, the “Mean Tox” value (primary rat hepatocytes; GLGC ID NO. 13614) was 51.4367, the “Mean Tox” value (primary rat hepatocytes; GLGC ID NO. 13919) was 64.7367 and the “Mean Tox” value (primary rat hepatocytes; GLGC ID NO. 14521) was 198.1933. The “Mean Tox” value (primary rat hepatocytes; GLGC ID NO. 14934) was 171.4667, the “Mean Tox” value (primary rat hepatocytes; GLGC ID NO. 15087) was 279.6733 and the “Mean Tox” value (primary rat hepatocytes; GLGC ID NO. 15205) was 136.0033. For the same compound, the “Mean Tox” value (primary rat hepatocytes; GLGC ID NO. 15403) was 546.1933, the “Mean Tox” value (primary rat hepatocytes; GLGC ID NO. 15663) was 575.4367 and the “Mean Tox” value (primary rat hepatocytes; GLGC ID NO. 15685) was 1989.9867. For the same compound, the “Mean Tox” value (primary rat hepatocytes; GLGC ID NO. 15925) was 154.8867, the “Mean Tox” value (primary rat hepatocytes; GLGC ID NO. 16006) was 341.7733 and the “Mean Tox” value (primary rat hepatocytes; GLGC ID NO. 16024) was 520.0167. For the same compound, the “Mean Tox” value (primary rat hepatocytes; GLGC ID NO. 16025) was 313.1433, the “Mean Tox” value (primary rat hepatocytes; GLGC ID NO. 16164) was 1717.2267 and the “Mean Tox” value (primary rat hepatocytes; GLGC ID NO. 16947) was 147.5900. The “Mean Tox” value (primary rat hepatocytes; GLGC ID NO. 17115) was −3.3700, the “Mean Tox” value (primary rat hepatocytes; GLGC ID NO. 17365) was 113.6667 and the “Mean Tox” value (primary rat hepatocytes; GLGC ID NO. 17549) was 1296.6000. The “Mean Tox” value (primary rat hepatocytes; GLGC ID NO. 17956) was 167.2833, the “Mean Tox” value (primary rat hepatocytes; GLGC ID NO. 18278) was 30.2633 and the “Mean Tox” value (primary rat hepatocytes; GLGC ID NO. 18383) was 210.0600. For the same compound, the “Mean Tox” value (primary rat hepatocytes; GLGC ID NO. 18498) was 412.3833, the “Mean Tox” value (primary rat hepatocytes; GLGC ID NO. 18524) was 233.6633 and the “Mean Tox” value (primary rat hepatocytes; GLGC ID NO. 18727) was 1450.8800. For the same compound, the “Mean Tox” value (primary rat hepatocytes; GLGC ID NO. 18777) was 195.2400, the “Mean Tox” value (primary rat hepatocytes; GLGC ID NO. 19371) was 24.8700 and the “Mean Tox” value (primary rat hepatocytes; GLGC ID NO. 20586) was 44.1067. The “Mean Tox” value (primary rat hepatocytes; GLGC ID NO. 20664) was 373.3533, the “Mean Tox” value (primary rat hepatocytes; GLGC ID NO. 20701) was 78.4500 and the “Mean Tox” value (primary rat hepatocytes; GLGC ID NO. 20755) was 2569.4500. The “Mean Tox” value (primary rat hepatocytes; GLGC ID NO. 20801) was 441.4867, the “Mean Tox” value (primary rat hepatocytes; GLGC ID NO. 20939) was 971.5300 and the “Mean Tox” value (primary rat hepatocytes; GLGC ID NO. 21064) was 291.1633. For the same compound, the “Mean Tox” value (primary rat hepatocytes; GLGC ID NO. 21154) was 116.8600, the “Mean Tox” value (primary rat hepatocytes; GLGC ID NO. 21747) was 330.9267 and the “Mean Tox” value (primary rat hepatocytes; GLGC ID NO. 21794) was 5.9200. For the same compound, the “Mean Tox” value (primary rat hepatocytes; GLGC ID NO. 22102) was 633.5467, the “Mean Tox” value (primary rat hepatocytes; GLGC ID NO. 22310) was 316.3067 and the “Mean Tox” value (primary rat hepatocytes; GLGC ID NO. 22576) was 484.4533. For the same compound, the “Mean Tox” value (primary rat hepatocytes; GLGC ID NO. 22915) was 409.8567, the “Mean Tox” value (primary rat hepatocytes; GLGC ID NO. 22994) was 83.8300 and the “Mean Tox” value (primary rat hepatocytes; GLGC ID NO. 23166) was 758.8567. The “Mean Tox” value (primary rat hepatocytes; GLGC ID NO. 23250) was 317.7900, the “Mean Tox” value (primary rat hepatocytes; GLGC ID NO. 23521) was 60.4533 and the “Mean Tox” value (primary rat hepatocytes; GLGC ID NO. 23630) was 789.8200. The “Mean Tox” value (primary rat hepatocytes; GLGC ID NO. 23738) was 290.9200, the “Mean Tox” value (primary rat hepatocytes; GLGC ID NO. 23860) was 310.3067 and the “Mean Tox” value (primary rat hepatocytes; GLGC ID NO. 24501) was 2075.2267. For the same compound, the “Mean Tox” value (primary rat hepatocytes; GLGC ID NO. 24554) was 25.3833, the “Mean Tox” value (primary rat hepatocytes; GLGC ID NO. 24814) was 389.9067 and the “Mean Tox” value (primary rat hepatocytes; GLGC ID NO. 25594) was 700.5833. The “Mean Tox” value (primary rat hepatocytes; GLGC ID NO. 26184) was 126.0933 and the “serum ALT levels” value (dogs) was “increased”.
